Several values for one entry are separate records, joined by “and”; a condition that tells them apart may be missing. Identical values can stand only once.
Assays:
[1] = test system: kidney tissues of treated or untreated rats; assay: Real-time qRT-PCR of signature amplicons, validation stage, labeled and un-labeled samples (Table 23); details: for H31883_DB71_seg13 normalized qRT-PCR result / MUSCYCG1R_DB81_seg19-20 normalized qRT-PCR result / W41270_DB81_seg11 normalized qRT-PCR result: un-labeled sample, one line per animal; for AI045075_DB71_seg6 normalized qRT-PCR expression (Interferon stimulated exonuclease 20 (ISG20) transcript) / H31883_DB71_seg13 normalized qRT-PCR expression (Cyclin-G1 (CCNG1) transcript) / MUSCYCG1R_DB81_seg19-20 normalized qRT-PCR expression / W41270_DB81_seg11 normalized qRT-PCR expression (tumor necrosis factor receptor superfamily, member 12a transcript) / W64472_DB81_seg2 normalized qRT-PCR expression (Interferon stimulated exonuclease 20 (ISG20) transcript) / W83813_DB81_seg27 normalized qRT-PCR expression: un-labeled samples, kidney of individual male/female rats
Source text: New primers were designed for part of the transcripts, and new conditions for several qRT-PCR reactions were used, as described below.
The measurements were normalized in two steps. First—according to the house-keeping-genes normalization factor, and second—each plate was normalized according to ratio of the intensity measurements from samples appearing in it and in the shuffled (normalization) plate (Table 25 provides the plates details and the section “Inter-Plate Normalization” provides details of the normalization process). The normalized values were further scaled by a factor, for ease of viewing.
RT was prepared and qRT-PCR performed and analyzed as described hereinabove. qRT-PCR was performed for the four genes comprising the signature of the discovery stage described in Table 13. Two amplicons were tested for each gene—one representing the wild-type transcript, and another representing an alternative splice variant. Each amplicon was measured using the labeled samples described in Table 9 herein, as well as the un-labeled samples. Samples from both groups (labeled and un-labeled) were tested in seven 96 well plates as described in Table 25. In order to correct possible run to run variations, the following controls were added: 1. several samples were repeated in all 96 wells plates; 2. control shuffled plate was designed which combined samples from all seven test plates.
To account for possible differences of qRT-PCR measurements between the different plates due to experimental artifacts, a normalization plate was planned. This plate, designated hereinabove ‘shuffled plate’, contained samples from all other plates. Real Time PCR was performed on this plate using the primers appropriate for all candidates in tables 26 and 27. For each other plate (plates 1-7 above) and each amplicon, the samples appearing also in the shuffled plate were examined—the ratio between the transcript abundance as measured in the plate to the abundance as measured in the shuffled plate was calculated, outliers were manually removed, and the geometric mean of the left ratios was taken as an additional multiplicative normalization factor for the plate and amplicon.

kidney = assay: Renal histopathology of rats treated with T1, T2, T3; format: in vivo, rat; details: rat, in vivo
Procedure: Each group consisted of 6 male and 6 female rats. The additional groups consisted of 6 males and 6 female rats treated with control compound for a single day and for five days, as described in Table 24.
T2 “no observed effect level” (NOEL, i.e., the maximal dose at which no toxic effect is visible) is 15 mg/kg.
At autopsy, both kidneys of each animal were removed and each kidney was cross sectioned. Half of each kidney was sent to RNA extraction and analysis.

[2] = Ds1, Day1, oral gavage, female rat kidney
[3] = Ds1, Day1, oral gavage, male rat kidney
[4] = Ds1, Day5, oral gavage, female rat kidney
[5] = Ds1, Day5, oral gavage, male rat kidney
[6] = Ds2, Day1, oral gavage, female rat kidney
[7] = Ds2, Day1, oral gavage, male rat kidney
[8] = Ds2, Day5, oral gavage, female rat kidney
[9] = Ds2, Day5, oral gavage, male rat kidney

## Nc1nc2ccc(OC(F)(F)F)cc2s1 [T3, 6-(trifluoromethoxy)benzothiazol-2-amine]
[1]; [2]
  H31883_DB71_seg13 normalized qRT-PCR result: 0.394 and 0.356 and 0.205
  MUSCYCG1R_DB81_seg19-20 normalized qRT-PCR result: 0.85 and 1.252 and 0.37
  W41270_DB81_seg11 normalized qRT-PCR result: 0.859 and 1.064 and 0.507
[1]; [3]
  H31883_DB71_seg13 normalized qRT-PCR result: 0.898 and 0.512 and 0.989 and 0.789
  MUSCYCG1R_DB81_seg19-20 normalized qRT-PCR result: 0.918 and 0.845 and 1.025 and 0.713
  W41270_DB81_seg11 normalized qRT-PCR result: 0.567 and 1.106 and 1.844 and 0.808
[1]; [4]
  H31883_DB71_seg13 normalized qRT-PCR result: 0.701 and 1.155 and 0.791 and 1.096
  MUSCYCG1R_DB81_seg19-20 normalized qRT-PCR result: 0.501 and 0.727 and 0.928 and 1.021
  W41270_DB81_seg11 normalized qRT-PCR result: 0.479 and 0.546 and 0.601 and 0.677
[1]; [5]
  H31883_DB71_seg13 normalized qRT-PCR result: 1.054 and 0.818 and 0.72
  MUSCYCG1R_DB81_seg19-20 normalized qRT-PCR result: 1.285 and 1.133 and 1.175
  W41270_DB81_seg11 normalized qRT-PCR result: 0.88 and 0.8 and 0.499
[1]; [6]
  H31883_DB71_seg13 normalized qRT-PCR result: 0.874 and 0.929 and 1.454
  MUSCYCG1R_DB81_seg19-20 normalized qRT-PCR result: 1.132 and 1.211 and 0.575
  W41270_DB81_seg11 normalized qRT-PCR result: 0.847 and 1.043 and 1.227
[1]; [7]
  H31883_DB71_seg13 normalized qRT-PCR result: 0.276 and 0.164 and 0.218 and 0.211
  MUSCYCG1R_DB81_seg19-20 normalized qRT-PCR result: 1.479 and 0.566 and 1.063 and 1.117
  W41270_DB81_seg11 normalized qRT-PCR result: 2.291 and 1.042 and 1.597 and 1.35
[1]; [8]
  H31883_DB71_seg13 normalized qRT-PCR result: 0.81 and 0.711 and 1.599 and 1.018
  MUSCYCG1R_DB81_seg19-20 normalized qRT-PCR result: 0.666 and 0.977 and 1.436 and 0.58
  W41270_DB81_seg11 normalized qRT-PCR result: 0.587 and 0.623 and 1.24 and 0.704
[1]; [9]
  H31883_DB71_seg13 normalized qRT-PCR result: 1.103 and 0.911
  MUSCYCG1R_DB81_seg19-20 normalized qRT-PCR result: 0.765 and 1.037
  W41270_DB81_seg11 normalized qRT-PCR result: 0.494 and 3.181
[1]; dose Ds1, Day1, oral gavage
  AI045075_DB71_seg6 normalized qRT-PCR expression (Interferon stimulated exonuclease 20 (ISG20) transcript): 0.354 and 1.103 and 0.678 and 0.596
  H31883_DB71_seg13 normalized qRT-PCR expression (Cyclin-G1 (CCNG1) transcript): 0.919 and 0.764 and 0.611 and 0.663 and 0.569 and 1.366 and 0.637 and 0.949 and 0.7 and 0.582 and 1.074
  MUSCYCG1R_DB81_seg19-20 normalized qRT-PCR expression: 0.96 and 0.232 and 0.183 and 1.044 and 1.137 and 0.132 and 0.134 and 0.767 and 0.441 and 0.114 and 0.726
  W41270_DB81_seg11 normalized qRT-PCR expression (tumor necrosis factor receptor superfamily, member 12a transcript): 0.64 and 0.457 and 0.575 and 0.374 and 0.468 and 0.465 and 0.344 and 0.568 and 0.551 and 0.282 and 0.649
  W64472_DB81_seg2 normalized qRT-PCR expression (Interferon stimulated exonuclease 20 (ISG20) transcript): 0.483 and 1.31 and 1.296 and 0.52
  W83813_DB81_seg27 normalized qRT-PCR expression: 0.322 and 0.663 and 0.497 and 0.402
[1]; dose Ds1, Day5, oral gavage
  AI045075_DB71_seg6 normalized qRT-PCR expression (Interferon stimulated exonuclease 20 (ISG20) transcript): 0.615 and 1.082 and 1.102 and 1.032
  H31883_DB71_seg13 normalized qRT-PCR expression (Cyclin-G1 (CCNG1) transcript): 1.65 and 1.003 and 1.338 and 0.576 and 1.082 and 1.358 and 1.585 and 0.946 and 1.094 and 1.3 and 1.301
  MUSCYCG1R_DB81_seg19-20 normalized qRT-PCR expression: 0.649 and 0.716 and 1.035 and 1.226 and 0.857 and 0.625 and 0.525 and 0.398 and 1.413 and 0.62 and 0.638
  W41270_DB81_seg11 normalized qRT-PCR expression (tumor necrosis factor receptor superfamily, member 12a transcript): 0.722 and 1.807 and 0.483 and 0.899 and 0.832 and 1.015 and 0.699 and 0.495 and 1.093 and 0.482 and 1.957
  W64472_DB81_seg2 normalized qRT-PCR expression (Interferon stimulated exonuclease 20 (ISG20) transcript): 0.852 and 1.176 and 1.034 and 0.822
  W83813_DB81_seg27 normalized qRT-PCR expression: 0.754 and 1.146 and 1.388 and 0.659
[1]; dose Ds2, Day1, oral gavage
  AI045075_DB71_seg6 normalized qRT-PCR expression (Interferon stimulated exonuclease 20 (ISG20) transcript): 0.444 and 1.146 and 0.527
  H31883_DB71_seg13 normalized qRT-PCR expression (Cyclin-G1 (CCNG1) transcript): 0.802 and 0.969 and 0.632 and 1.119 and 0.923 and 0.767 and 1.13 and 1.47 and 0.662 and 0.643
  MUSCYCG1R_DB81_seg19-20 normalized qRT-PCR expression: 0.92 and 0.203 and 0.275 and 2.153 and 0.29 and 0.152 and 1.45 and 2.313 and 0.798 and 0.158
  W41270_DB81_seg11 normalized qRT-PCR expression (tumor necrosis factor receptor superfamily, member 12a transcript): 0.49 and 0.347 and 0.174 and 0.912 and 0.418 and 0.359 (2×) and 0.667 and 0.956 and 0.897
  W64472_DB81_seg2 normalized qRT-PCR expression (Interferon stimulated exonuclease 20 (ISG20) transcript): 0.659 and 1.566 and 0.602
  W83813_DB81_seg27 normalized qRT-PCR expression: 0.67 and 0.137 and 0.761
[1]; dose Ds2, Day5, oral gavage
  AI045075_DB71_seg6 normalized qRT-PCR expression (Interferon stimulated exonuclease 20 (ISG20) transcript): 0.37 and 1.451 and 0.53
  H31883_DB71_seg13 normalized qRT-PCR expression (Cyclin-G1 (CCNG1) transcript): 0.942 and 0.718 and 1.058 and 1.087 and 2.34 and 1.259 and 0.705 and 0.846 and 0.949
  MUSCYCG1R_DB81_seg19-20 normalized qRT-PCR expression: 1.567 and 0.875 and 1.708 and 1.024 and 1.119 and 1.475 and 1.004 and 0.658 and 1.003
  W41270_DB81_seg11 normalized qRT-PCR expression (tumor necrosis factor receptor superfamily, member 12a transcript): 0.762 and 1.066 and 1.119 and 0.472 and 0.766 and 0.944 and 0.363 and 0.605 and 0.43
  W64472_DB81_seg2 normalized qRT-PCR expression (Interferon stimulated exonuclease 20 (ISG20) transcript): 0.368 and 0.779 and 0.656
  W83813_DB81_seg27 normalized qRT-PCR expression: 0.729 and 0.728 and 0.933
kidney
  Renal damage: no renal damage after up to 35 days of treatment

From patent US20160177395A1, “BIOMARKERS FOR THE PREDICTION OF RENAL INJURY” (priority 2007, published 2016)
